The text below walks through data of patent US20250249025A1, “DRUG DELIVERY CARRIER UTILIZING PROPERTY OF D-ALLOSE BEING UPTAKEN BY CANCER CELL, DRUG DELIVERY METHOD, AND COMPOSITION FOR TREATING RENAL CELL CARCINOMA” (NATIONAL UNIVERSITY CORPORATION KAGAWA UNIVERSITY, priority 2019, published 2025).

Each structure is given as a SMILES string.

For this experiment, the system named is renal cell carcinoma cell line (Caki-II). Nature of the experiment: Cell survival assay (MTT assay), Caki-II. It is filed as cell-based, human. Conditions: 10 mM, 25 mM and 50 mM in MEM, 24 hours, compared with Control (p<0.05), FIG. 3. The protocol:
The antitumor effect of rare sugars was analyzed using the three human renal cell carcinoma cell lines (ACHN, Caki-I, and Caki-II) used in Example 1. As the rare sugars, used were the following ten rare sugars: L-allulose, D-allulose, D-allose, L-fructose, D-mannose, L-sorbose, D-tagatose, D-galactose, D-sorbose, and L-tagatose, while as monosaccharides not belonging to rare sugars, D-glucose and D-fructose were used.
As a medium, a minimum essential medium (MEM) containing 1000 mg/l of D-glucose was used. By adjusting it to contain 10 mM, 25 mM, and 50 mM of each of the monosaccharides or rare sugars and using thus-obtained MEMs [shown by (10), (25), and (50) in the drawing], an antitumor effect of the rare sugars was evaluated.
A 5.0×10^4 cells/ml of each of cell suspensions was formed using MEM. The resulting suspension (0.1 ml/well) was distributed in a 96-well plate, followed by culturing for 24 hours. […]
The MTT assay is one of test methods for measuring survival and makes use of a color reaction of an insoluble formazan dye (blue) caused by the reduction of MTT which is a tetrazolium salt. […] The cell viability is determined by measuring this color reaction with a microplate reader.
A general note: Tetrazolium assays rely on reduction of a dye to a coloured formazan, in cell work by metabolically active cells.

Regarding `O=C[C@H](O)[C@H](O)[C@H](O)[C@H](O)CO` [D-allose], the Viability result is “significantly reduced the viability”.
